Consider 10 compounds from patent publication US10206394B2, “Herbicidal compounds” (Syngenta Participations AG, priority 2014, dated 2019).

Read-outs that look alike come from different tables or passages of the source.

Test in all cases: Glasshouse assay for herbicidal activity (pre- and post-emergence), percentage phytotoxicity
Format in all cases: in vivo

Assay [1] concerns Echinochloa crus-galli (ECHCG). The following applies: Echinochloa crus-galli. In short, it runs like this:
(§1)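 Pot-grown, standard soil. PRE: spray 1 d post-sowing; POST: ~12 d. Glasshouse 24/18 °C (warm spp.) / 20/16 °C (cool spp.), 16 h light, 65% RH, watered 2×/day. Visual % damage, 20 DAA PRE, 15 DAA POST.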

In assay [2] the test system is Alopecurus myosuroides (ALOMY). The following applies: Alopecurus myosuroides. In short, it runs like this:
as §1

A further assay relates to Avena fatua (AVEFA). The following applies: Avena fatua. Put shortly:
as §1

A further assay has as its system Lolium perenne (LOLPE). The following applies: Lolium perenne. Put shortly:
as §1

[3] abbreviates: post-emergence, 360 h, 250 g/ha, post-emergence, 15 DAA, visual assessment (100%=total damage, 0%=no damage), read-out: Post-emergence herbicidal activity (percentage phytotoxicity) ECHCG POST.
Setting [4] is: pre-emergence, 480 h, 250 g/ha, pre-emergence, 20 DAA, visual assessment (100%=total damage, 0%=no damage), read-out: Pre-emergence herbicidal activity (percentage phytotoxicity) ECHCG PRE.
[5] abbreviates: post-emergence, 360 h, 250 g/ha, post-emergence, 15 DAA, visual assessment (100%=total damage, 0%=no damage), read-out: Post-emergence herbicidal activity (percentage phytotoxicity) ALOMY POST.
Where [6] appears, read: pre-emergence, 480 h, 250 g/ha, pre-emergence, 20 DAA, visual assessment (100%=total damage, 0%=no damage), read-out: Pre-emergence herbicidal activity (percentage phytotoxicity) ALOMY PRE.
The mark [7] stands for this setting: post-emergence, 360 h, 250 g/ha, post-emergence, 15 DAA, visual assessment (100%=total damage, 0%=no damage), read-out: Post-emergence herbicidal activity (percentage phytotoxicity) AVEFA POST.
The mark [8] stands for this setting: pre-emergence, 480 h, 250 g/ha, pre-emergence, 20 DAA, visual assessment (100%=total damage, 0%=no damage), read-out: Pre-emergence herbicidal activity (percentage phytotoxicity) AVEFA PRE.
Setting [9] is: post-emergence, 360 h, 250 g/ha, post-emergence, 15 DAA, visual assessment (100%=total damage, 0%=no damage), read-out: Post-emergence herbicidal activity (percentage phytotoxicity) LOLPE POST.
[10] abbreviates: pre-emergence, 480 h, 250 g/ha, pre-emergence, 20 DAA, visual assessment (100%=total damage, 0%=no damage), read-out: Pre-emergence herbicidal activity (percentage phytotoxicity) LOLPE PRE.
The mark [11] stands for this setting: post-emergence, 360 h, Rate 250 g/ha, post-emergence, visual assessment 15 DAA, 100%=total damage, 0%=no damage, read-out: Post-emergence herbicidal activity (percentage phytotoxicity) ECHCG POST.
Setting [12] is: pre-emergence, 480 h, Rate 250 g/ha, pre-emergence, visual assessment 20 DAA, 100%=total damage, 0%=no damage, read-out: Pre-emergence herbicidal activity (percentage phytotoxicity) ECHCG PRE.
Where [13] appears, read: post-emergence, 360 h, Rate 250 g/ha, post-emergence, visual assessment 15 DAA, 100%=total damage, 0%=no damage, read-out: Post-emergence herbicidal activity (percentage phytotoxicity) ALOMY POST.
The mark [14] stands for this setting: pre-emergence, 480 h, Rate 250 g/ha, pre-emergence, visual assessment 20 DAA, 100%=total damage, 0%=no damage, read-out: Pre-emergence herbicidal activity (percentage phytotoxicity) ALOMY PRE.
The mark [15] stands for this setting: post-emergence, 360 h, Rate 250 g/ha, post-emergence, visual assessment 15 DAA, 100%=total damage, 0%=no damage, read-out: Post-emergence herbicidal activity (percentage phytotoxicity) AVEFA POST.
[16] abbreviates: pre-emergence, 480 h, Rate 250 g/ha, pre-emergence, visual assessment 20 DAA, 100%=total damage, 0%=no damage, read-out: Pre-emergence herbicidal activity (percentage phytotoxicity) AVEFA PRE.
The mark [17] stands for this setting: post-emergence, 360 h, Rate 250 g/ha, post-emergence, visual assessment 15 DAA, 100%=total damage, 0%=no damage, read-out: Post-emergence herbicidal activity (percentage phytotoxicity) LOLPE POST.
[18] abbreviates: pre-emergence, 480 h, Rate 250 g/ha, pre-emergence, visual assessment 20 DAA, 100%=total damage, 0%=no damage, read-out: Pre-emergence herbicidal activity (percentage phytotoxicity) LOLPE PRE.
The mark [19] stands for this setting: post-emergence, 360 h, Rate 250 g/ha, post-emergence, assessed visually 15 DAA, 100%=total damage, 0%=no damage, read-out: Post-emergence herbicidal activity (percentage phytotoxicity) ECHCG POST.
The mark [20] stands for this setting: pre-emergence, 480 h, Rate 250 g/ha, pre-emergence, assessed visually 20 DAA, 100%=total damage, 0%=no damage, read-out: Pre-emergence herbicidal activity (percentage phytotoxicity) ECHCG PRE.
The mark [21] stands for this setting: post-emergence, 360 h, Rate 250 g/ha, post-emergence, assessed visually 15 DAA, 100%=total damage, 0%=no damage, read-out: Post-emergence herbicidal activity (percentage phytotoxicity) ALOMY POST.
The mark [22] stands for this setting: pre-emergence, 480 h, Rate 250 g/ha, pre-emergence, assessed visually 20 DAA, 100%=total damage, 0%=no damage, read-out: Pre-emergence herbicidal activity (percentage phytotoxicity) ALOMY PRE.
Where [23] appears, read: post-emergence, 360 h, Rate 250 g/ha, post-emergence, assessed visually 15 DAA, 100%=total damage, 0%=no damage, read-out: Post-emergence herbicidal activity (percentage phytotoxicity) AVEFA POST.
Setting [24] is: pre-emergence, 480 h, Rate 250 g/ha, pre-emergence, assessed visually 20 DAA, 100%=total damage, 0%=no damage, read-out: Pre-emergence herbicidal activity (percentage phytotoxicity) AVEFA PRE.
The mark [25] stands for this setting: post-emergence, 360 h, Rate 250 g/ha, post-emergence, assessed visually 15 DAA, 100%=total damage, 0%=no damage, read-out: Post-emergence herbicidal activity (percentage phytotoxicity) LOLPE POST.
[26] abbreviates: pre-emergence, 480 h, Rate 250 g/ha, pre-emergence, assessed visually 20 DAA, 100%=total damage, 0%=no damage, read-out: Pre-emergence herbicidal activity (percentage phytotoxicity) LOLPE PRE.
[27] abbreviates: post-emergence, 360 h, POST-emergence, rate 250 g/ha, visual score 15 DAA (100%=total damage, 0%=no damage), read-out: Post-emergence herbicidal activity (percentage phytotoxicity) ECHCG POST.
[28] abbreviates: pre-emergence, 480 h, PRE-emergence, rate 250 g/ha, visual score 20 DAA (100%=total damage, 0%=no damage), read-out: Pre-emergence herbicidal activity (percentage phytotoxicity) ECHCG PRE.
Setting [29] is: post-emergence, 360 h, POST-emergence, rate 250 g/ha, visual score 15 DAA (100%=total damage, 0%=no damage), read-out: Post-emergence herbicidal activity (percentage phytotoxicity) ALOMY POST.
Where [30] appears, read: pre-emergence, 480 h, PRE-emergence, rate 250 g/ha, visual score 20 DAA (100%=total damage, 0%=no damage), read-out: Pre-emergence herbicidal activity (percentage phytotoxicity) ALOMY PRE.
Setting [31] is: post-emergence, 360 h, POST-emergence, rate 250 g/ha, visual score 15 DAA (100%=total damage, 0%=no damage), read-out: Post-emergence herbicidal activity (percentage phytotoxicity) AVEFA POST.
Setting [32] is: pre-emergence, 480 h, PRE-emergence, rate 250 g/ha, visual score 20 DAA (100%=total damage, 0%=no damage), read-out: Pre-emergence herbicidal activity (percentage phytotoxicity) AVEFA PRE.
The mark [33] stands for this setting: post-emergence, 360 h, POST-emergence, rate 250 g/ha, visual score 15 DAA (100%=total damage, 0%=no damage), read-out: Post-emergence herbicidal activity (percentage phytotoxicity) LOLPE POST.
The mark [34] stands for this setting: pre-emergence, 480 h, PRE-emergence, rate 250 g/ha, visual score 20 DAA (100%=total damage, 0%=no damage), read-out: Pre-emergence herbicidal activity (percentage phytotoxicity) LOLPE PRE.

With `CC#Cc1cc(C)c(C2C(=O)CC(CC(=O)N3CCOCC3)C2=O)c(C)c1` (stereo not shown) [Compound B155], the pest or weed control at 250 g/ha in assay [1] (setting [3]) was 100%; in assay [1] (setting [4]) it was 100%; in assay [2] (setting [5]) it was 100%; in assay [2] (setting [6]), 90%; in the assay with Avena fatua (AVEFA) (setting [7]) it was 100%; with Avena fatua (AVEFA) (setting [8]) it was 100%. Also, the pest or weed control at 250 g/ha with Lolium perenne (LOLPE) (setting [9]) and in the assay on Lolium perenne (LOLPE) (setting [10]) was 100% throughout.
`Cc1ccc(CNC(=O)CC2CC(=O)C(c3c(C)cc(-c4ccc(Cl)cn4)cc3C)C2=O)cc1` (stereo not shown) [Compound B375]: the pest or weed control at 250 g/ha worked out at 100% in assay [1] (setting [11]); 90% in assay [1] (setting [12]); 40% in assay [2] (setting [13]); 60% in assay [2] (setting [14]); 70% in the assay with Avena fatua (AVEFA) (setting [15]); 70% in the assay with Avena fatua (AVEFA) (setting [16]). Further, the pest or weed control at 250 g/ha in the assay with Lolium perenne (LOLPE) (setting [17]) and in the assay with Lolium perenne (LOLPE) (setting [18]) was 80% throughout.
In the case of `Cc1ccc(CNC(=O)CC2CC(=O)C(c3c(C)cc(C)cc3C)C2=O)cc1` (stereo not shown) [Compound B14], the pest or weed control at 250 g/ha stood at 90% in assay [1] (setting [3]); 70% in assay [1] (setting [4]); 70% in assay [2] (setting [5]); 70% in assay [2] (setting [6]); 80% in the assay on Avena fatua (AVEFA) (setting [7]); 70% with Avena fatua (AVEFA) (setting [8]). For the same compound, the pest or weed control at 250 g/ha with Lolium perenne (LOLPE) (setting [9]) and with Lolium perenne (LOLPE) (setting [10]) was 90% in each case.
For the compound `Cc1cc(-c2ncc(Cl)cc2F)cc(C)c1C1C(=O)CC(CC(=O)NCc2ccsc2)C1=O` (stereo not shown) [Compound A130], the pest or weed control at 250 g/ha stood at 100% in assay [1] (setting [19]); 100% in assay [1] (setting [20]); 90% in assay [2] (setting [21]); 70% in assay [2] (setting [22]); 100% in the assay with Avena fatua (AVEFA) (setting [23]); 90% with Avena fatua (AVEFA) (setting [24]). Also, the pest or weed control at 250 g/ha in the assay on Lolium perenne (LOLPE) (setting [25]) is 100%; in the assay with Lolium perenne (LOLPE) (setting [26]) it was 90%.
Regarding `Cc1cc(-c2ncc(Cl)cc2F)cc(C)c1C1C(=O)CC(CC(=O)NCc2cncs2)C1=O` (stereo not shown) [Compound A129], the pest or weed control at 250 g/ha stood at 90% in assay [1] (setting [19]), 50% in assay [2] (setting [21]), 70% in the assay on Avena fatua (AVEFA) (setting [23]) and 20% in the assay with Lolium perenne (LOLPE) (setting [25]).
As to `Cc1cc(C)c(C2C(=O)CC(CC(=O)NCC=C(Cl)Cl)C2=O)c(C)c1` (stereo not shown) [Compound B159], the pest or weed control at 250 g/ha in assay [1] (setting [3]) amounted to 80%; in assay [1] (setting [4]) it was 90%; in assay [2] (setting [5]), 70%; in assay [2] (setting [6]), 80%; in the assay on Avena fatua (AVEFA) (setting [7]) it was 90%; with Avena fatua (AVEFA) (setting [8]), 0%. Moreover, the pest or weed control at 250 g/ha in the assay on Lolium perenne (LOLPE) (setting [9]) and in the assay on Lolium perenne (LOLPE) (setting [10]) was 90% throughout.
With `Cc1ccc(CNC(=O)CC2CC(=O)C(c3c(C)cc(-c4ncc(Cl)cn4)cc3C)C2=O)cc1` (stereo not shown) [Compound B355], the pest or weed control at 250 g/ha is 100% in assay [1] (setting [11]); 90% in assay [1] (setting [12]); 80% in assay [2] (setting [13]); 50% in assay [2] (setting [14]); 90% in the assay on Avena fatua (AVEFA) (setting [15]); 70% with Avena fatua (AVEFA) (setting [16]). For the same compound, the pest or weed control at 250 g/ha in the assay with Lolium perenne (LOLPE) (setting [17]) turned out to be 100%; in the assay on Lolium perenne (LOLPE) (setting [18]) it was 70%.
Consider `CCc1cc(C)cc(C)c1C1C(=O)CC(CC(=O)N(C)CC)C1=O` (stereo not shown) [Compound B258], for which the pest or weed control at 250 g/ha in assay [1] (setting [27]) amounted to 100%; in assay [1] (setting [28]), 100%; in assay [2] (setting [29]), 100%; in assay [2] (setting [30]), 100%; in the assay with Avena fatua (AVEFA) (setting [31]), 100%; in the assay with Avena fatua (AVEFA) (setting [32]), 90%. Besides, the pest or weed control at 250 g/ha with Lolium perenne (LOLPE) (setting [33]) and in the assay with Lolium perenne (LOLPE) (setting [34]) was 100% each time.
For the compound `CCNC(=O)CC1CC(=O)C(c2c(C)cc(-c3ccc(Br)cn3)cc2C)C1=O` (stereo not shown) [Compound B323], the pest or weed control at 250 g/ha was 100% in assay [1] (setting [27]); 100% in assay [1] (setting [28]); 100% in assay [2] (setting [29]); 100% in assay [2] (setting [30]); 100% with Avena fatua (AVEFA) (setting [31]); 90% in the assay on Avena fatua (AVEFA) (setting [32]). The pest or weed control at 250 g/ha in the assay on Lolium perenne (LOLPE) (setting [33]) and in the assay on Lolium perenne (LOLPE) (setting [34]) was 100% throughout.
`Cc1cc(C)c(C2C(=O)CC(CC(=O)NCc3ccccc3C#N)C2=O)c(C)c1` (stereo not shown) [Compound A108]: the pest or weed control at 250 g/ha in assay [1] (setting [19]) stood at 20%; in assay [1] (setting [20]), 30%; in assay [2] (setting [21]), 0%; in assay [2] (setting [22]) it was 0%; with Avena fatua (AVEFA) (setting [23]) it was 60%; in the assay on Avena fatua (AVEFA) (setting [24]) it was 0%. In addition, the pest or weed control at 250 g/ha in the assay with Lolium perenne (LOLPE) (setting [25]) was determined as 60%; in the assay with Lolium perenne (LOLPE) (setting [26]), 80%.
